Test results as given in patent publication US10040788B2, “1,3,4-thiadiazole compounds and their use in treating cancer” (AstraZeneca AB, priority 2014, dated 2018).
Read-outs that look alike come from different tables or passages of the source.

Tests used:
[1] = tested on: NCI-H1703 cells; test: GLS Cell Proliferation Assay (NCI-H1703); assay type: cell-based, human
From the text: (§1) The following assays were used to measure the effects of the compounds of the present invention: a) GLS Enzyme Potency Assay; b) GLS Cell Potency Assay; c) GLS Cell Proliferation Assay; and d) Mouse Xenograft Model. During the description of the assays, generally: • i. The following abbreviations have been used: CO2=Carbon dioxide; DMEM=Dulbecco's Modified Eagle Medium; DMSO=Dimethyl sulphoxide; EDTA=Ethylenediaminetetraacetic acid; EGTA=Ethylene glycol tetraacetic acid; FCS=Foetal calf serum; h=Hour(s); NBS=Non-binding surface; SDS=Sodium dodecyl sulphate; r.t.=room temperature; TRIS=Tris(Hydroxymethyl)aminomethane. • ii. […]
The ability of compounds to inhibit cell growth was measured using a 384 well plate NCI-H1703 cell proliferation assay. NCI-H1703 cells were grown in phenol red free RPMI1640, 10% FCS and 2 mM glutamine and seeded at a density of 750 cells per well in 40 μl of growth medium into clear-bottom 384 well assay plates (Corning product code 3712) and incubated for 24 h at 37° C., 5% CO2. […] DMSO concentration was maintained at 0.3% by back filling with DMSO solution. Plates were incubated for 5 days at 37° C., 5% CO2, Sytox Green and Saponin added to final concentration of 2 μM and 0.25% respectively and incubated for 6 h prior to analysis. Plates were read on an Acumen eX3 (TTP Labtech) using 488 nm excitation and FITC filter set (500-530 nm) for emission. IC50 values were calculated by curve fitting to max inhibition of day zero growth using GeneData software analysis.

[2] = molecular target: GLS1 (Homo sapiens (Human), UniProt O94925); test: GLS Enzyme Potency Assay (Glutamate Oxidase/AmplexRed coupled assay); assay type: biochemical; conditions: 6His tagged GLS protein (amino acids 63-669); geometric mean where repeated
From the text: The following assays were used to measure the effects of the compounds of the present invention: a) GLS Enzyme Potency Assay; b) GLS Cell Potency Assay; c) GLS Cell Proliferation Assay; and d) Mouse Xenograft Model. During the description of the assays, generally: • i. The following abbreviations have been used: CO2=Carbon dioxide; DMEM=Dulbecco's Modified Eagle Medium; DMSO=Dimethyl sulphoxide; EDTA=Ethylenediaminetetraacetic acid; EGTA=Ethylene glycol tetraacetic acid; FCS=Foetal calf serum; h=Hour(s); NBS=Non-binding surface; SDS=Sodium dodecyl sulphate; r.t.=room temperature; TRIS=Tris(Hydroxymethyl)aminomethane. • ii. IC50 values were calculated using a smart fitting model in Genedata. […] Assay a): GLS Enzyme Potency Assay
A Glutamate Oxidase/AmplexRed coupled assay was used to measure the ability of compounds to bind to and inhibit the activity of GLS1 in vitro. […] GLS1 was diluted to 2× working concentration and incubated at r.t. to allow the tetrameric/dimeric forms to reach steady state. Assay measurements were performed in buffer comprising 50 mM TRIS pH 7.8, 100 mM NaPO4, pH 7.8, 0.001% v/v Tween20. […] DMSO concentration was maintained at 2% by back filling with DMSO solution. […] 3 μL of 100 mM glutamine diluted in assay buffer was then added and the reaction incubated at r.t. for 60 minutes. […] An artefact version of the assay where the 6His tagged GLS protein and glutamine were replaced with assay buffer was also used to rule out non specific effects on the assay components.

[3] = molecular target: cellular GLS activity (Homo sapiens (Human), UniProt O94925); test: GLS Cell Potency Assay (PC3 coupled assay measuring cellular glutamate depletion); assay type: cell-based; conditions: PC3 cells, 6 h incubation, cellular glutamate depletion; geometric mean where repeated; read-out: Assay b) GLS Cell Potency Assay IC50
From the text: as §1
Compounds were assessed for their potential to inhibit cellular GLS activity by use of a PC3 coupled assay measuring cellular glutamate depletion. […] DMSO concentration was maintained at 0.3% by back filling with DMSO solution. PC3 cells were grown in phenol free DMEM, 10% dialyzed FCS, 2 mM glutamine and following dispersal by trypsinisation were plated at 5.6×10^3 cells per well in 40 μl of growth medium directly into the 384 well assay plates containing dispensed compound. After incubation for 6 h at 37° C., 5% CO2 growth media was aspirated and cells lysed in 15 μl of buffer containing 10 mM TRIS pH7.4, 100 mM NaCl, 1 mM EDTA, 1 mM EGTA, 1 mM NaF, 20 mM Na4P2O7, 2 mM Na3VO4, 1% Triton X-100, 10% glycerol, 0.1% SDS and 0.5% deoxycholate.

[4] = Homo sapiens, 120 h; NCI-H1703 cells, 5 days incubation; geometric mean where repeated; read-out: Assay c) GLS Cell Proliferation Assay

GLS1, sequence (O94925 63-669): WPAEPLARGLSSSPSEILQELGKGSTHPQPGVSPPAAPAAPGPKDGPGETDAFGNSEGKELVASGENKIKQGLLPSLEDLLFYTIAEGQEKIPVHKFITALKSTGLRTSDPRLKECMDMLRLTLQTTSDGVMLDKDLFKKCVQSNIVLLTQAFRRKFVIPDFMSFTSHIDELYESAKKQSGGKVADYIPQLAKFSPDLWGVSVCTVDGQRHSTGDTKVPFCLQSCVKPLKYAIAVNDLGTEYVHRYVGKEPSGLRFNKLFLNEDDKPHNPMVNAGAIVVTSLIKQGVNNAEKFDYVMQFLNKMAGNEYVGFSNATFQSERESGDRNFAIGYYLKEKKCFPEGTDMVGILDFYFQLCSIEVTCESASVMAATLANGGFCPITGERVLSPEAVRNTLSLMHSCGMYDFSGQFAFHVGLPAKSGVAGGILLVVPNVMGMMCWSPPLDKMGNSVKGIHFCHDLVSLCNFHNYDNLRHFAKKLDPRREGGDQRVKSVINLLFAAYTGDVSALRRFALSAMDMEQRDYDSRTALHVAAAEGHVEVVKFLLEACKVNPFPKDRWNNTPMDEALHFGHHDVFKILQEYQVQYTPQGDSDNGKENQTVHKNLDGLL
cellular GLS activity, sequence (O94925 55-669): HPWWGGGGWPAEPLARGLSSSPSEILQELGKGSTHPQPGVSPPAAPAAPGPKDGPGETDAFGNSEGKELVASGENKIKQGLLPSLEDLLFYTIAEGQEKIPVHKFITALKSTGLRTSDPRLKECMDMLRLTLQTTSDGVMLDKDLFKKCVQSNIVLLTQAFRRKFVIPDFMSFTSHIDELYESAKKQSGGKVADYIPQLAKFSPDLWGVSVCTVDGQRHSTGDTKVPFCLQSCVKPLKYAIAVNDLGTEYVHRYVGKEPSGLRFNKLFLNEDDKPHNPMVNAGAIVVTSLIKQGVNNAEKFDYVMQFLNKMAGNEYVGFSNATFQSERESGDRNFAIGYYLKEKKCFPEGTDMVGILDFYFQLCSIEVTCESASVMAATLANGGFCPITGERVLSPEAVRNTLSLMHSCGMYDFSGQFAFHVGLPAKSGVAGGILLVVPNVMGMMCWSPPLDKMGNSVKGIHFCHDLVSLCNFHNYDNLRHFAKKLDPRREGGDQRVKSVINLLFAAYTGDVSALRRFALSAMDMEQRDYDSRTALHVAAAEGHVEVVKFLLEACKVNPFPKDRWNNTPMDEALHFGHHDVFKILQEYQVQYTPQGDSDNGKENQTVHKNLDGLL

Row | Compound | IC50 ([1]; NCI-H1703 cells, 5 days incubation; geometric mean where repeated; read-out: Assay c) GLS Cell Proliferation Assay) | IC50 [2] | IC50 [3] | IC50 [1, 4]
1 | CO[C@H](C(=O)Nc1nnc(N[C@@H]2CCN(c3nccnn3)C2)s1)c1cccc(OC(F)F)c1 [19(a), (2S)-2-[3-(difluoromethoxy)phenyl]-2-methoxy-N-[5-[[(3R)-1-(1,2,4-triazin-3-yl)pyrrolidin-3-yl]amino]-1,3,4-thiadiazol-2-yl]acetamide] | 16.6 nM | 85.1 nM | 2.54 nM | 
2 | CO[C@@H](C(=O)Nc1nnc(N[C@@H]2CCN(c3nccnn3)C2)s1)c1cccc(OC(F)F)c1 [19(b), (2R)-2-[3-(difluoromethoxy)phenyl]-2-methoxy-N-[5-[[(3R)-1-(1,2,4-triazin-3-yl)pyrrolidin-3-yl]amino]-1,3,4-thiadiazol-2-yl]acetamide] |  | 519 nM | 37.4 nM | 
3 | COc1cccc([C@H](OC)C(=O)Nc2nnc(N[C@@H]3CCN(c4cncnn4)C3)s2)c1 [21(a), (2S)-2-methoxy-2-(3-methoxyphenyl)-N-[5-[[(3R)-1-(1,2,4-triazin-6-yl)pyrrolidin-3-yl]amino]-1,3,4-thiadiazol-2-yl]acetamide] |  |  | 15.7 nM | 168 nM
4 | COc1cccc([C@@H](OC)C(=O)Nc2nnc(N[C@@H]3CCN(c4cncnn4)C3)s2)c1 [21(b), (2R)-2-methoxy-2-(3-methoxyphenyl)-N-[5-[[(3R)-1-(1,2,4-triazin-6-yl)pyrrolidin-3-yl]amino]-1,3,4-thiadiazol-2-yl]acetamide] |  | 46.9 nM | 0.35 nM | 1.78 nM
5 | COc1ccc([C@H](OC)C(=O)Nc2nnc(N[C@@H]3CCN(c4cccnn4)C3)s2)cc1OC [25(a), (2S)-2-(3,4-dimethoxyphenyl)-2-methoxy-N-[5-[[(3R)-1-pyridazin-3-ylpyrrolidin-3-yl]amino]-1,3,4-thiadiazol-2-yl]acetamide] |  | 35.4 nM | 1.81 nM | 68.5 nM
6 | COc1ccc([C@@H](OC)C(=O)Nc2nnc(N[C@@H]3CCN(c4cccnn4)C3)s2)cc1OC [25(b), (2R)-2-(3,4-dimethoxyphenyl)-2-methoxy-N-[5-[[(3R)-1-pyridazin-3-ylpyrrolidin-3-yl]amino]-1,3,4-thiadiazol-2-yl]acetamide] |  | 135 nM | 56.1 nM | 630 nM
7 | CCO[C@H](C(=O)Nc1nnc(N[C@@H]2CCN(c3nccnn3)C2)s1)c1cccc(OC)c1 [27(a), (2S)-2-ethoxy-2-(3-methoxyphenyl)-N-[5-[[(3R)-1-(1,2,4-triazin-3-yl)pyrrolidin-3-yl]amino]-1,3,4-thiadiazol-2-yl]acetamide] |  | 50.8 nM | 2.23 nM | 11.7 nM
8 | CCO[C@@H](C(=O)Nc1nnc(N[C@@H]2CCN(c3nccnn3)C2)s1)c1cccc(OC)c1 [27(b), (2R)-2-ethoxy-2-(3-methoxyphenyl)-N-[5-[[(3R)-1-(1,2,4-triazin-3-yl)pyrrolidin-3-yl]amino]-1,3,4-thiadiazol-2-yl]acetamide] |  | 844 nM | 19.5 nM | 337 nM
9 | CCO[C@H](C(=O)Nc1nnc(N[C@@H]2CCN(c3nccnn3)C2)s1)c1ccc(OC)cc1 [29(a), (2S)-2-ethoxy-2-(4-methoxyphenyl)-N-[5-[[(3R)-1-(1,2,4-triazin-3-yl)pyrrolidin-3-yl]amino]-1,3,4-thiadiazol-2-yl]acetamide] |  | 108 nM | 5.42 nM | 125 nM
10 | CCO[C@@H](C(=O)Nc1nnc(N[C@@H]2CCN(c3nccnn3)C2)s1)c1ccc(OC)cc1 [29(b), (2R)-2-ethoxy-2-(4-methoxyphenyl)-N-[5-[[(3R)-1-(1,2,4-triazin-3-yl)pyrrolidin-3-yl]amino]-1,3,4-thiadiazol-2-yl]acetamide] |  | 1370 nM | 134 nM | 1960 nM
11 | CCO[C@H](C(=O)Nc1nnc(N[C@@H]2CCN(c3cccnn3)C2)s1)c1ccc(F)c(OC)c1 [31(a), (2S)-2-ethoxy-2-(4-fluoro-3-methoxy-phenyl)-N-[5-[[(3R)-1-pyridazin-3-ylpyrrolidin-3-yl]amino]-1,3,4-thiadiazol-2-yl]acetamide] |  | 50.2 nM | 0.559 nM | 16.5 nM
12 | CCO[C@@H](C(=O)Nc1nnc(N[C@@H]2CCN(c3cccnn3)C2)s1)c1ccc(F)c(OC)c1 [31(b), (2R)-2-ethoxy-2-(4-fluoro-3-methoxy-phenyl)-N-[5-[[(3R)-1-pyridazin-3-ylpyrrolidin-3-yl]amino]-1,3,4-thiadiazol-2-yl]acetamide] |  | 86.2 nM | 33.3 nM | 624 nM
13 | COc1cc([C@H](OC)C(=O)Nc2nnc(N[C@@H]3CCN(c4nccnn4)C3)s2)ccc1F [32(a), (2S)-2-(4-fluoro-3-methoxy-phenyl)-2-methoxy-N-[5-[[(3R)-1-(1,2,4-triazin-3-yl)pyrrolidin-3-yl]amino]-1,3,4-thiadiazol-2-yl]acetamide] |  | 2460 nM | 300 nM | 2960 nM
14 | COc1cc([C@@H](OC)C(=O)Nc2nnc(N[C@@H]3CCN(c4nccnn4)C3)s2)ccc1F [32(b), (2R)-2-(4-fluoro-3-methoxy-phenyl)-2-methoxy-N-[5-[[(3R)-1-(1,2,4-triazin-3-yl)pyrrolidin-3-yl]amino]-1,3,4-thiadiazol-2-yl]acetamide] |  | 70.7 nM | 4.99 nM | 107 nM
15 | CCO[C@H](C(=O)Nc1nnc(N[C@@H]2CCN(c3nccnn3)C2)s1)c1ccc(F)c(OC)c1 [33(a), (2S)-2-ethoxy-2-(4-fluoro-3-methoxy-phenyl)-N-[5-[[(3R)-1-(1,2,4-triazin-3-yl)pyrrolidin-3-yl]amino]-1,3,4-thiadiazol-2-yl]acetamide] |  | 50.2 nM | 7.13 nM | 168 nM
16 | CCO[C@@H](C(=O)Nc1nnc(N[C@@H]2CCN(c3nccnn3)C2)s1)c1ccc(F)c(OC)c1 [33(b), (2R)-2-ethoxy-2-(4-fluoro-3-methoxy-phenyl)-N-[5-[[(3R)-1-(1,2,4-triazin-3-yl)pyrrolidin-3-yl]amino]-1,3,4-thiadiazol-2-yl]acetamide] |  | 1970 nM | 690 nM | 5540 nM
17 | CCO[C@H](C(=O)Nc1nnc(N[C@@H]2CCN(c3nccnn3)C2)s1)c1ccccc1 [34(a), (2S)-2-ethoxy-2-phenyl-N-[5-[[(3R)-1-(1,2,4-triazin-3-yl)pyrrolidin-3-yl]amino]-1,3,4-thiadiazol-2-yl]acetamide] |  | 88.1 nM | 12 nM | 93.1 nM
18 | CCO[C@@H](C(=O)Nc1nnc(N[C@@H]2CCN(c3nccnn3)C2)s1)c1ccccc1 [34(b), (2R)-2-ethoxy-2-phenyl-N-[5-[[(3R)-1-(1,2,4-triazin-3-yl)pyrrolidin-3-yl]amino]-1,3,4-thiadiazol-2-yl]acetamide] |  | 1480 nM | 168 nM | 2900 nM
19 | CCO[C@H](C(=O)Nc1nnc(N[C@@H]2CCN(c3cccnn3)C2)s1)c1ccccc1 [Example 10(a), (2S)-2-Ethoxy-2-phenyl-N-[5-[[(3R)-1-pyridazin-3-ylpyrrolidin-3-yl]amino]-1,3,4-thiadiazol-2-yl]acetamide] |  |  | 0.91 nM | 10.9 nM
